The target of the first assay is human GPR40 (Homo sapiens, UniProt O14842). The assay can be described thus: Inositol Phosphate Turnover (IP1) Assay 2. The note with it: HEK cells stably expressing human GPR40, Table 2, read-out: Human IP1. The format is cell-based. Further details: expressed in transfected cells. The method, then:
Human and mouse GPR40 stable cell-lines were generated in CHO cells stably expressing NFAT BLA (Beta-lactamase). A human GPR40 stable cell-line was generated in HEK cells stably expressing the aequorin expressing reporter. The expression plasmids were transfected using lipofectamine (Life Technologies) following manufacturer's instructions. Stable cell-lines were generated following drug selection.
The assay is performed in 384-well format. HEK cells stably expressing human GPR40 are plated at 15,000 cells per well in growth medium (DMEM/10% fetal calf serum). Cell plates are then incubated 16 hours at 37 degrees in a 5% CO2 incubator.
Measurement of Inositol Phosphate Turnover (IP1) is performed using the CisBio IP-One kit (Part number 62IPAPEB). After the 16 hour incubation, the cells are washed with HEPES buffer and 10 ul of stimulation buffer (prepared as described in the kit) is added to each well. In a separate plate, compounds are diluted in DMSO (400-fold over the final concentration in the assay well) and 25 nl is acoustically transferred to the appropriate well in the assay cell plate. The plates are then incubated for 60 minutes at 37 degrees. 10 ul of detection buffer (also prepared as described in the IP-One kit) is added to each well and the plates are incubated for 60 minutes in the dark. The plates are then read in a Perkin Elmer EnVision or equivalent reader able to measure FRET.
human GPR40, sequence (O14842 whole entry): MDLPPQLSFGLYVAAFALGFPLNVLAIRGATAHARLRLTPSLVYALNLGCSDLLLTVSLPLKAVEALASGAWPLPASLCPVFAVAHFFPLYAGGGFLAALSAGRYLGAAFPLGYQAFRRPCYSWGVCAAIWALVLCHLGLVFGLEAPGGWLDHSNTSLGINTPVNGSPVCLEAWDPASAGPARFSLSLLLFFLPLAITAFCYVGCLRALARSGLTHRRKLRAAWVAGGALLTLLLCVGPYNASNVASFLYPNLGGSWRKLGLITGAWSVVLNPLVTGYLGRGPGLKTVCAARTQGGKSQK
As to `COc1ccc(F)c(-c2ccc(C3CCc4ccc([C@H](C5CC5)[C@@H](C)C(=O)O)cc4O3)nc2)c1` (single isomer, unassigned) [Example 97d], the EC50 came out at 43 nM.

As to `COc1ccc(F)c(-c2ccc(C3CCc4ccc(C(C5CCC5)C(C)C(=O)O)cc4O3)cc2)c1` (single isomer, unassigned) [Example 159], the EC50 stood at 1.8 nM.

In the case of `O=C(O)C[C@H](c1ccc2c(c1)OC(c1ccc(-c3cccc(OCC(F)(F)F)c3)cc1)CC2)C1CC1` (some centres unmarked) [Example 73], the EC50 was 1200 nM.

Turning to `C[C@H](C(=O)O)[C@H](c1ccc2c(c1)OC(c1ccc(-c3cc(O)ccc3F)cc1)CC2)C1CC1` (single isomer, unassigned) [Example 67], the EC50 is 21 nM.

In the case of `CCOc1cc(-c2ccc(C3CCc4ccc([C@@H](CC(=O)O)C5CC5)cc4O3)cc2)ccc1F` (some centres unmarked) [Example 84], the EC50 is 1520 nM.

`COc1ccc(F)c(-c2ccc(C3CCc4ccc([C@H](C5CC5)[C@@H](C)C(=O)O)cc4O3)nc2)c1` (single isomer, unassigned) [Example 97b]: the EC50 is 30 nM.

`COc1ccc(F)c(-c2ccc(C3CCc4ccc([C@H](C5CC5)[C@H](C)C(=O)O)cc4O3)cc2C(OC)C(C)(C)C)c1` (mixture of isomers) [Example 128]: the EC50 is 3.2 nM.

In the case of `COc1ccc(F)c(-c2ccc(C3CCc4ccc(C(C5CCC5)C(C)C(=O)O)cc4O3)cc2)c1` (single isomer, unassigned) [Example 152, (2S,3S)-3-cyclobutyl-3-((R or S)-2-(2′-fluoro-5′-methoxy-[1,1′-biphenyl]-4-yl)chroman-7-yl)-2-methylpropanoic acid], the EC50 is 774 nM.

Take `COc1ccc(F)c(-c2ccc(C3CCc4ccc(C(C)C(C)C(=O)O)cc4O3)cc2)c1` (single isomer, unassigned) [Example 144]: the EC50 is 1420 nM.

As to `COc1ccc(F)c(-c2ccc(C3CCc4ccc(C(C)C(C)C(=O)O)cc4O3)cc2)c1` (single isomer, unassigned) [Example 147c], the EC50 came to 138 nM.

In the case of `COc1cc(-c2ccc(C3CCc4ccc([C@@H](CC(=O)O)C5CC5)cc4O3)c(F)c2)c(F)cc1F` (mixture of isomers) [Example 95], the EC50 was 218 nM.

As for `COc1ccc(F)c(-c2ccc(C3CCc4ccc([C@H](CC(=O)O)C5CCC5)cc4O3)cc2)c1` (single isomer, unassigned) [Example 148, (3R)-3-cyclobutyl-3-((R or S)-(2-(2′-fluoro-5′-methoxy-[1,1′-biphenyl]-4-yl)chroman-7-yl)propanoic acid], the EC50 was found to be 398 nM.

For the compound `COc1ccc(F)c(-c2ccc(C3CCc4ccc(C(C)C(C)C(=O)O)cc4O3)cc2)c1` (single isomer, unassigned) [Example 143], the EC50 was determined as 252 nM.

Regarding `COc1ccc(F)c(-c2ccc(C3CCc4ccc([C@@H](CC(=O)O)C5CC5)cc4O3)cc2C(OC)C(C)(C)C)c1` (single isomer, unassigned) [Example 125c], the EC50 worked out at 235 nM.

In the case of `COc1ccc(F)c(-c2ccc(C3CCc4ccc(C(C)C(C)C(=O)O)cc4O3)cc2)c1` (single isomer, unassigned) [Example 142], the EC50 worked out at 13 nM.

Turning to `COc1ccc(F)c(-c2ccc(C3CCc4ccc([C@@H](CC(=O)O)C5CC5)cc4O3)cc2)c1F` (some centres unmarked) [Example 82], the EC50 is 54 nM.

Regarding `COc1cccc(-c2ccc(C3CCc4ccc([C@@H](CC(=O)O)C5CC5)cc4O3)cc2)c1` (some centres unmarked) [Example 79], the EC50 was found to be 22 nM.

In the case of `COc1cccc(-c2ccc(C3CCc4ccc([C@@H](CC(=O)O)C5CC5)cc4O3)cc2)n1` (some centres unmarked) [Example 75], the EC50 was 304 nM.

Take `COc1ccc(F)c(-c2ccc(C3CCc4ccc([C@H](C5CC5)[C@H](C)C(=O)O)cc4O3)nc2C(F)(F)F)c1` (single isomer, unassigned) [Example 111a]: the EC50 worked out at 6 nM.

In the case of `COc1ccc(F)c(-c2ccc(C3CCc4ccc(C(CC(=O)O)C5CC5)cc4O3)cc2C2=CCCC2(C)C)c1` (single isomer, unassigned) [Example 101d], the EC50 was 90 nM.

For the compound `COc1ccc(F)c(-c2ccc(C3CCc4ccc(C(C)C(C)C(=O)O)cc4O3)cc2)c1` (single isomer, unassigned) [Example 147b], the EC50 is 3180 nM.

Turning to `COc1ccc(F)c(-c2ccc(C3CCc4ccc(C(C)C(C)C(=O)O)cc4O3)cc2)c1` (single isomer, unassigned) [Example 145], the EC50 came to 77 nM.

`COc1cc(-c2cnc(C3CCc4ccc([C@H](C5CC5)[C@H](C)C(=O)O)cc4O3)c(F)c2)c(F)cn1` (single isomer, unassigned) [Example 110a]: the EC50 stood at 6.8 nM.

In the case of `COc1ccc(F)c(-c2ccc(C3CCc4ccc(C(C)C(C)C(=O)O)cc4O3)cc2)c1` (single isomer, unassigned) [Example 146], the EC50 turned out to be 270 nM.

In the case of `COc1ccc(F)c(-c2cnc(C3CCc4ccc([C@H](C5CC5)[C@H](C)C(=O)O)cc4O3)c(F)c2)c1` (single isomer, unassigned) [Example 105b], the EC50 was 0.79 nM.

Take `COc1ccc(F)c(-c2ccc(C3CCc4ccc(C(C)C(C)C(=O)O)cc4O3)cc2)c1` (single isomer, unassigned) [Example 147a]: the EC50 stood at 9 nM.

Regarding `COc1ccc(F)c(-c2ccc(C3CCc4ccc([C@H](C5CC5)[C@H](C)C(=O)O)cc4O3)nc2C2=CCCC2(C)C)c1` (mixture of isomers) [Example 114], the EC50 turned out to be 8.8 nM.

Consider `COc1cc(F)cc(-c2ccc(C3CCc4ccc([C@@H](CC(=O)O)C5CC5)cc4O3)cc2)c1` (some centres unmarked) [Example 72], for which the EC50 came to 116 nM.

For `C[C@H](C(=O)O)[C@H](c1ccc2c(c1)OC(c1ccc(-c3cc(O)ccc3F)cn1)CC2)C1CC1` (mixture of isomers) [Example 107], the EC50 was 132 nM.

`CN1CCOc2cc(-c3ccc(C4CCc5ccc([C@@H](CC(=O)O)C6CC6)cc5O4)c(F)c3)ccc21` (mixture of isomers) [Example 87]: the EC50 is 1390 nM.

As for `COc1cc(-c2ccc(C3CCc4ccc([C@@H](CC(=O)O)C5CC5)cc4O3)c(F)c2)ccn1` (mixture of isomers) [Example 96], the EC50 is 14 nM.

Turning to `COc1ccc(F)c(-c2ccc(C3CCc4ccc([C@@H](CC(=O)O)C5CC5)cc4O3)cc2[C@@H]2CCCC2(C)C)c1` (mixture of isomers) [Example 103], the EC50 was determined as 6.2 nM.

Consider `COc1cc(-c2ccc(C3CCc4ccc([C@H](C5CC5)[C@H](C)C(=O)O)cc4O3)cc2)ccn1` (single isomer, unassigned) [Example 118a], for which the EC50 is 1.6 nM.

In the case of `COc1ccc(F)c(-c2ccc(C3CCc4ccc([C@@H](CC(=O)O)C5CC5)cc4O3)cc2C(OC)C2CC2)c1` (mixture of isomers) [Example 126], the EC50 amounted to 14.1 nM.

Staying with this assay, now noted: HEK cells stably expressing human GPR40, Table 3, read-out: Human IP1 activity.
Consider `COc1ccc(F)c(-c2ccc(C3COc4ccc([C@@H](CC(=O)O)C5CC5)cc4O3)cc2)c1` (single isomer, unassigned) [Example 167], for which the EC50 came out at 31 nM.

On to `COc1ccc(F)c(-c2ccc(C3COc4ccc([C@H](C5CC5)[C@H](C)C(=O)O)c(F)c4O3)cc2)c1` (some centres unmarked) [Example 184], for which the EC50 was found to be 1.6 nM.

For `COc1ccc(F)c(-c2ccc(C3COc4ccc([C@H](C5CC5)[C@H](C)C(=O)O)cc4O3)cc2OC(F)(F)F)c1` (single isomer, unassigned) [Example 172], the EC50 is 6.9 nM.

Regarding `COc1ccc(F)c(-c2ccc([C@@H]3COc4ccc([C@H](C5CC5)[C@H](C)C(=O)O)cc4O3)cc2Cl)c1` [Example 178], the EC50 was determined as 10.6 nM.

With `CC#C[C@@H](CC(=O)O)c1ccc2c(c1)OCC(c1ccc(-c3cc(OC)ccc3F)cc1)O2` (some centres unmarked) [Example 175], the EC50 was 220 nM.

As to `COc1ccc(F)c(-c2ccc(C3COc4ccc([C@H](C5CC5)[C@H](C)C(=O)O)cc4O3)cc2)c1` (single isomer, unassigned) [Example 173], the EC50 is 1.8 nM.

For the compound `C[C@H](C(=O)O)[C@H](c1ccc2c(c1)OC(C1CN(Cc3cc(C(F)(F)F)ccc3C(F)(F)F)C1)CO2)C1CC1` (single isomer, unassigned) [Example 187], the EC50 came out at 1280 nM.

Regarding `COc1ccc(F)c(-c2ccc(C3COc4ccc([C@H](C5CC5)[C@H](C)C(=O)O)cc4O3)cc2)c1` (some centres unmarked) [Example 170], the EC50 was found to be 0.17 nM.

In the case of `COc1ccc(F)c(-c2ccc(C3COc4ccc([C@H](C5CC5)[C@H](C)C(=O)O)cc4O3)cc2OC(F)(F)F)c1` (mixture of isomers) [Example 169], the EC50 was determined as 9.5 nM.

For `COc1ccc(F)c(-c2ccc([C@@H]3COc4ccc([C@H](C5CC5)[C@H](C)C(=O)O)cc4O3)cc2-c2cccc3ccn(C)c23)c1` [Example 180], the EC50 amounted to 4.8 nM.

Consider `COc1ccc(F)c(-c2ccc(C3COc4ccc([C@H](C5CC5)[C@H](C)C(=O)O)cc4O3)cc2)c1` (single isomer, unassigned) [Example 174], for which the EC50 came out at 0.5 nM.

With `COc1ccc(F)c(-c2ccc(C3COc4ccc([C@@H](CC(=O)O)C5CC5)cc4O3)cc2)c1` (mixture of isomers) [Example 166], the EC50 was 18.8 nM.

`COc1ccc(F)c(-c2ccc([C@H]3COc4ccc([C@H](C5CC5)[C@H](C)C(=O)O)cc4O3)cc2Cl)c1` [Example 179]: the EC50 came out at 16.3 nM.
